We go through 15 compounds from the SangsterLogP compilation.

For `N#Cc1cc(-c2ccncc2)cnc1Cl`, the logP amounted to 1.74.

Consider `CN(C)c1ncc(-c2ccncc2)cc1C#N`, for which the logP came out at 2.13.

In the case of `COCCCNc1ncc(-c2ccncc2)cc1C#N`, the logP came to 2.03.

Turning to `N#Cc1cc(-c2ccncc2)cnc1N1CCCC1`, the lipophilicity (logP) turned out to be 2.95.

`CCC(CO)Nc1ncc(-c2ccncc2)cc1C#N` (stereo not given) returned a logP of 1.04.

As to `N#Cc1cc(-c2ccncc2)cnc1NCCO`, the logP was 1.17.

On to `COC(CNc1ncc(-c2ccncc2)cc1C#N)OC`, for which the logP turned out to be 2.28.

Compound `N#Cc1cc(-c2ccncc2)cnc1N(CCO)CCO` returned a logP of 1.14.

In the case of `N#Cc1cc(-c2ccncc2)cnc1NCCCO`, the logP is 1.42.

As for `N#Cc1cc(-c2ccncc2)cnc1NCc1ccccc1`, the logP came to 3.45.

Consider `C=CCNc1ncc(-c2ccncc2)cc1C#N`, for which the logP turned out to be 2.07.

In turn, `N#Cc1cc(-c2ccncc2)cnc1NCCOCCO` registered a logP of 1.62.

The compound `N#Cc1cc(-c2ccncc2)cnc1NCCCCO` showed a logP of 1.93.

`CCNc1ncc(-c2ccncc2)cc1C#N` gave a logP of 2.33.

With `CC(O)CNc1ncc(-c2ccncc2)cc1C#N` (stereo not given), the logP is 0.79.

A word on the logP: it is the decadic logarithm of the partition coefficient of the neutral form, usually between octanol and water.
